Converted amounts (≈) assume the structure as drawn.
Columns and labels:
[1] = Solubility in fed state simulated intestinal fluids; assay type: physicochemical
[2] = Solubility in fasted state simulated intestinal fluids; assay type: physicochemical

In the case of `C[C@H]1c2cccc(CCC(C)(C)O)c2C[C@H](CO)N1C(=O)Cc1c(Cl)cccc1Cl` (stereo in doubt; form 2) [MEVIDALEN], the solubility ([1]; simulated gi fluid) is reported as 0.002 mg/mL (≈ 4.44 µM) and the solubility ([2]; simulated gi fluid) is reported as 0.002 mg/mL (≈ 4.44 µM).
`C[C@H]1c2cccc(CCC(C)(C)O)c2C[C@H](CO)N1C(=O)Cc1c(Cl)cccc1Cl.O=C(O)c1ccc(O)cc1` [MEVIDALEN HYDROXYBENZOATE] gave a solubility ([1]; fed state simulated intestinal fluid, read-out: solubility) of 0.697 mg/mL and a solubility ([2]; fasted state simulated intestinal fluid, read-out: solubility) of 0.206 mg/mL.

Reference: ChEMBL document CHEMBL4334497, “Synthesis and Pharmacological Characterization of 2-(2,6-Dichlorophenyl)-1-((1S,3R)-5-(3-hydroxy-3-methylbutyl)-3-(hydroxymethyl)-1-methyl-3,4-dihydroisoquinolin-2(1H)-yl)ethan-1-one (LY3154207), a Potent, Subtype Selective, and Orally Available Positive Allosteric Modulator of the Human Dopamine …” (J Med Chem, 2019)
